Like-named read-outs stand apart in the source and are kept apart here.
Experiments:
CDK1/Cyclin E1 = CDK1/Cyclin E1 (Homo sapiens, UniProt P06493); test: NanoBRET live-cell target engagement, CDK1-NanoLuc/Cyclin E1 in HEK-293; type: binding; conditions: CDK1/E1; for IC50: read-out: IC50
CDK18/Cyclin Y = CDK18/Cyclin Y (Homo sapiens, UniProt Q07002); test: NanoBRET live-cell target engagement, CDK18-NanoLuc/Cyclin Y in HEK-293; type: binding; conditions: CDK18/Y
CDK11B/Cyclin L2 = CDK11B/Cyclin L2 (Homo sapiens, UniProt P21127); test: NanoBRET live-cell target engagement, CDK11B-NanoLuc/Cyclin L2 in HEK-293; type: binding; conditions: CDK11b/L2
CDK7 = CDK7 (Homo sapiens, UniProt P50613); test: NanoBRET live-cell target engagement, NanoLuc-CDK7 in HEK-293; type: binding; conditions: CDK7; for IC50: read-out: IC50
CDK10/Cyclin L2 = CDK10/Cyclin L2 (Homo sapiens, UniProt Q15131); test: NanoBRET live-cell target engagement, CDK10-NanoLuc/Cyclin L2 in HEK-293; conditions: CDK10/L2
CDK6/Cyclin D1 = CDK6/Cyclin D1 (Homo sapiens, UniProt Q00534); test: NanoBRET live-cell target engagement, NanoLuc-CDK6/Cyclin D1 in HEK-293; type: binding; conditions: CDK6/D1
CDK15/Cyclin Y = CDK15/Cyclin Y (Homo sapiens, UniProt Q96Q40); test: NanoBRET live-cell target engagement, NanoLuc-CDK15/Cyclin Y in HEK-293; type: binding; conditions: CDK15/Y
CDK9/Cyclin K = CDK9/Cyclin K (Homo sapiens, UniProt P50750); test: NanoBRET live-cell target engagement, NanoLuc-CDK9/Cyclin K in HEK-293; type: binding; conditions: CDK9/K
CDK2/Cyclin E1 = CDK2/Cyclin E1 (Homo sapiens, UniProt P24941); test: NanoBRET live-cell target engagement, CDK2-NanoLuc/Cyclin E1 in HEK-293; type: binding; conditions: CDK2/E1; for IC50: read-out: IC50
CDK14/Cyclin Y = CDK14/Cyclin Y (Homo sapiens, UniProt O94921); test: NanoBRET live-cell target engagement, CDK14-NanoLuc/Cyclin Y in HEK-293; type: binding; conditions: CDK14/Y
CDK16/Cyclin Y = CDK16/Cyclin Y (Homo sapiens, UniProt Q00536); test: NanoBRET live-cell target engagement, CDK16-NanoLuc/Cyclin Y in HEK-293; type: binding; conditions: CDK16/Y
CDK5/CDK5R1 = CDK5/CDK5R1 (Homo sapiens, UniProt Q00535); test: NanoBRET live-cell target engagement, CDK5-NanoLuc/CDK5R1 in HEK-293; type: binding; conditions: CDK5/CDK5R1; for IC50: read-out: IC50
CDK17/Cyclin Y = CDK17/Cyclin Y (Homo sapiens, UniProt Q00537); test: NanoBRET live-cell target engagement, CDK17-NanoLuc/Cyclin Y in HEK-293; type: binding; conditions: CDK17/Y
CDK19/Cyclin C = CDK19/Cyclin C (Homo sapiens, UniProt Q9BWU1); test: NanoBRET live-cell target engagement, NanoLuc-CDK19/Cyclin C in HEK-293; conditions: CDK19/C
CDK13/Cyclin K = CDK13/Cyclin K (Homo sapiens, UniProt Q14004); test: NanoBRET live-cell target engagement, CDK13-NanoLuc/Cyclin K in HEK-293; type: binding; conditions: CDK13/K
CDK3/Cyclin E1 = CDK3/Cyclin E1 (Homo sapiens, UniProt Q00526); test: NanoBRET live-cell target engagement, CDK3-NanoLuc/Cyclin E1 in HEK-293; type: binding; conditions: CDK3/E1; for IC50: read-out: IC50
CDK20/Cyclin H = CDK20/Cyclin H (Homo sapiens, UniProt Q8IZL9); test: NanoBRET live-cell target engagement, NanoLuc-CDK20/Cyclin H in HEK-293; type: binding; conditions: CDK20/H
CDK12/Cyclin K = CDK12/Cyclin K (Homo sapiens, UniProt Q9NYV4); test: NanoBRET live-cell target engagement, CDK12-NanoLuc/Cyclin K in HEK-293; type: binding; conditions: CDK12/K
CDK4/Cyclin D1 = CDK4/Cyclin D1 (Homo sapiens, UniProt P11802); test: NanoBRET live-cell target engagement, NanoLuc-CDK4/Cyclin D1 in HEK-293; type: binding; conditions: CDK4/D1
CDK8/Cyclin C = CDK8/Cyclin C (Homo sapiens, UniProt P49336); test: NanoBRET live-cell target engagement, NanoLuc-CDK8/Cyclin C in HEK-293; type: binding; conditions: CDK8/C; for IC50: read-out: IC50
Chain of CDK8/Cyclin C (P49336 whole entry): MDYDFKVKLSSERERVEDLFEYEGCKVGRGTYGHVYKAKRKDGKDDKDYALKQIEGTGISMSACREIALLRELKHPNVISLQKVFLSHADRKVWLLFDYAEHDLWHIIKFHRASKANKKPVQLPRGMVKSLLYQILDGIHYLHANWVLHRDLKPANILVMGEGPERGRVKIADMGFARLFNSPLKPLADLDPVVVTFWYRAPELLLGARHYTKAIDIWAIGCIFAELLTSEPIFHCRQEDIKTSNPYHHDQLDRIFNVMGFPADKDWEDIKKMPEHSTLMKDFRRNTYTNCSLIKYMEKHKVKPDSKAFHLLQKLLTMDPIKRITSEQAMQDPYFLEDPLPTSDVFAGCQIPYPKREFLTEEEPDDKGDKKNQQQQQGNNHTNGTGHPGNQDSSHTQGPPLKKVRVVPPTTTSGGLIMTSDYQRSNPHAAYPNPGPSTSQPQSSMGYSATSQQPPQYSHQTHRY
Chain of CDK8/Cyclin C (P24863 whole entry partner): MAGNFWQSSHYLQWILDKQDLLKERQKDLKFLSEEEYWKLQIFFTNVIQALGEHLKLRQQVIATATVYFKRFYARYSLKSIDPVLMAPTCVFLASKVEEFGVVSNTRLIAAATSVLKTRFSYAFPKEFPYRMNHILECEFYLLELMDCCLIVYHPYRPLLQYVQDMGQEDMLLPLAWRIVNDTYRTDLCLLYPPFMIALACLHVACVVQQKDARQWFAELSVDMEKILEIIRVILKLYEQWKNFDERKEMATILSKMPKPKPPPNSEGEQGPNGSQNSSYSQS

Chain of CDK3/Cyclin E1 (Q00526 whole entry): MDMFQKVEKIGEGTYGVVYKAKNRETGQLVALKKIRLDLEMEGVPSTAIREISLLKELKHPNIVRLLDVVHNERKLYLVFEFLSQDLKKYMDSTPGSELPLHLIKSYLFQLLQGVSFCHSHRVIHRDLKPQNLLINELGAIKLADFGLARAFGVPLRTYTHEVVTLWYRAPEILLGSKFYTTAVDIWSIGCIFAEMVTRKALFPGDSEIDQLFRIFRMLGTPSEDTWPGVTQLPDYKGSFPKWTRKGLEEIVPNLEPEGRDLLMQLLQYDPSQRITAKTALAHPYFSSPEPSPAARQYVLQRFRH
Chain of CDK3/Cyclin E1 (P24864 whole entry partner): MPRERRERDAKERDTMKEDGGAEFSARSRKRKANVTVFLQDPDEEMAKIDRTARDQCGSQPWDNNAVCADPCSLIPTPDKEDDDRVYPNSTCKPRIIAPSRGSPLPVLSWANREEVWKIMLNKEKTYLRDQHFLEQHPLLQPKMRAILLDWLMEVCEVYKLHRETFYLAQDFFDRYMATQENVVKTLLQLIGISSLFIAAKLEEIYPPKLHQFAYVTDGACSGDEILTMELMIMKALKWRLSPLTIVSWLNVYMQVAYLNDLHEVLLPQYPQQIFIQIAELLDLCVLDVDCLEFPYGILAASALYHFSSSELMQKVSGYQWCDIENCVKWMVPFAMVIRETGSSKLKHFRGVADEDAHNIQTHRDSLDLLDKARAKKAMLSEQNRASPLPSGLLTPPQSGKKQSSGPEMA
Chain of CDK9/Cyclin K (P50750 whole entry): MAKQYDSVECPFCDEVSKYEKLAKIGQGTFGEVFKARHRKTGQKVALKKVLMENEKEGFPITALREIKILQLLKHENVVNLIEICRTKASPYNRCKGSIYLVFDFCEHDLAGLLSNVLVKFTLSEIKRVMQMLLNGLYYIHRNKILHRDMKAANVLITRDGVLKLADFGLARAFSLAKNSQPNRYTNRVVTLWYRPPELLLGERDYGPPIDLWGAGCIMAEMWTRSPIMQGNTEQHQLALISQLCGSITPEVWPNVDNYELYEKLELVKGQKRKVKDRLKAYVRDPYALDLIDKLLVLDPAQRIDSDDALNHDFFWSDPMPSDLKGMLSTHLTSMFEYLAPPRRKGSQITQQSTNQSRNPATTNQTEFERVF
Chain of CDK9/Cyclin K (O75909 whole entry partner): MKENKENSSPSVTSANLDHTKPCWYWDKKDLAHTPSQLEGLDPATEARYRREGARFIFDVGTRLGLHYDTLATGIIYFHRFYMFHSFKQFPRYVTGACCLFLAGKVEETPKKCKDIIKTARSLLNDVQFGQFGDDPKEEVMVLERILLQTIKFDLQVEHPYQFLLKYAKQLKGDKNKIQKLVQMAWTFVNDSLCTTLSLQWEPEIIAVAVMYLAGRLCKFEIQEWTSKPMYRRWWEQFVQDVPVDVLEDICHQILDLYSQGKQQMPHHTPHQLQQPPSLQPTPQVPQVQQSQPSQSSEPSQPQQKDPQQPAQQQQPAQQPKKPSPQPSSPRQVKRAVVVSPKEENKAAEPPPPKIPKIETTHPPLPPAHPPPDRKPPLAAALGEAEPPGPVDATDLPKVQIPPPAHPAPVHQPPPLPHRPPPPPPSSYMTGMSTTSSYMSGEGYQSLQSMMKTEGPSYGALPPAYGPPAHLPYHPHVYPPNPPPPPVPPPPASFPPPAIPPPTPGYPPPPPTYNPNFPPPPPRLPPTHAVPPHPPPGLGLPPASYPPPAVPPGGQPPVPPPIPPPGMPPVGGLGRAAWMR
Chain of CDK13/Cyclin K (O75909 whole entry): as the sequence (O75909 whole entry partner) above
Chain of CDK13/Cyclin K (Q14004 other isoform, or with tags, fused parts or gaps): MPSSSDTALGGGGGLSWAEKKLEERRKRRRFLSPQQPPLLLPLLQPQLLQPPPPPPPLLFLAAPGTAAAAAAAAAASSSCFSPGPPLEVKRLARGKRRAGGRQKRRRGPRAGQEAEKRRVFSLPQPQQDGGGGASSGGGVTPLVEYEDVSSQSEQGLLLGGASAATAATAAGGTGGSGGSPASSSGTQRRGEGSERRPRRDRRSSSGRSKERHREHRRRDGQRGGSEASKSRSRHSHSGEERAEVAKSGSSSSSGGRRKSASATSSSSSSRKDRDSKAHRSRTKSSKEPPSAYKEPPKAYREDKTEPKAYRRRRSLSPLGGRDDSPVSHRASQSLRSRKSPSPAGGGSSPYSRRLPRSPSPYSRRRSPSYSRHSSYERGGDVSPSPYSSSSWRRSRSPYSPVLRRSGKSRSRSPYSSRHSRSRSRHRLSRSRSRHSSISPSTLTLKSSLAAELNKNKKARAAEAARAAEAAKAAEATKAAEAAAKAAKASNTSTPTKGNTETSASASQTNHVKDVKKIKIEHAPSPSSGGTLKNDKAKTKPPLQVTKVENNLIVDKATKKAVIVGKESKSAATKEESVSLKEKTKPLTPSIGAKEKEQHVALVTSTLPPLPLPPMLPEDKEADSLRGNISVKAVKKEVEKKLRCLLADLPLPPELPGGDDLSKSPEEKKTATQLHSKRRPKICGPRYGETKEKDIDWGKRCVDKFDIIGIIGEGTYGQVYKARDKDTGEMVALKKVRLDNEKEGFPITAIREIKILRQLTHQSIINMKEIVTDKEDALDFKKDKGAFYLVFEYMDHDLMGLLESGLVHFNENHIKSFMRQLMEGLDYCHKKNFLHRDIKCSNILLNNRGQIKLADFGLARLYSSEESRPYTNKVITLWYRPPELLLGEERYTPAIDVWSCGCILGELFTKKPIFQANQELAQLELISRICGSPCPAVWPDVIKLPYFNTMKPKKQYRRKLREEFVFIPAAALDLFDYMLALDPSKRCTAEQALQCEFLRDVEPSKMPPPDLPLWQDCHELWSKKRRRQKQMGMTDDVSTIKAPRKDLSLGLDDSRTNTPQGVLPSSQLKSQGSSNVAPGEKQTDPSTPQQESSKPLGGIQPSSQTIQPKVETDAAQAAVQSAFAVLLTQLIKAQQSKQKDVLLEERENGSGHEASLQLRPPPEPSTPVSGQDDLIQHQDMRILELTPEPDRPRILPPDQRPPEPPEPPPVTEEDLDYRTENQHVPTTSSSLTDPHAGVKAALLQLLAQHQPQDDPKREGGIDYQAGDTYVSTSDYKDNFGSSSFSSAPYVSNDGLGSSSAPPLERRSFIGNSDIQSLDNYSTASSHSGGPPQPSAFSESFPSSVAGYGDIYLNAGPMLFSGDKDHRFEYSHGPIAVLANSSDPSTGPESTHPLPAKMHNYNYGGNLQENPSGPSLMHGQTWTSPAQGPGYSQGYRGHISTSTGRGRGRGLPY
Chain of CDK19/Cyclin C (Q9BWU1 whole entry): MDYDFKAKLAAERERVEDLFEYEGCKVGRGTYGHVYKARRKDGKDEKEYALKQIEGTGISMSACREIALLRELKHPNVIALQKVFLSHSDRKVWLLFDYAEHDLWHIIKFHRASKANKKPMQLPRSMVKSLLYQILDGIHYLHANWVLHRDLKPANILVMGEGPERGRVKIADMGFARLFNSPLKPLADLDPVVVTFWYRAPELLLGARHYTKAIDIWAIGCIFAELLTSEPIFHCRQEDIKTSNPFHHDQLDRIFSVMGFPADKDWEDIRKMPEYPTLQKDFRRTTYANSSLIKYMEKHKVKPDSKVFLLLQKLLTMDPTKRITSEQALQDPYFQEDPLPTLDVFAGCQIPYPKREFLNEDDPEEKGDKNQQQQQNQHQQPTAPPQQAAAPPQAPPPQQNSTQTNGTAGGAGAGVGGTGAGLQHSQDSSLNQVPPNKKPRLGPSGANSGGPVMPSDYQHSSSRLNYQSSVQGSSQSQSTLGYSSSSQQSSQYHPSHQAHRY
Chain of CDK19/Cyclin C (P24863 whole entry partner): as the sequence (P24863 whole entry partner) above
Chain of CDK7 (P50613 whole entry): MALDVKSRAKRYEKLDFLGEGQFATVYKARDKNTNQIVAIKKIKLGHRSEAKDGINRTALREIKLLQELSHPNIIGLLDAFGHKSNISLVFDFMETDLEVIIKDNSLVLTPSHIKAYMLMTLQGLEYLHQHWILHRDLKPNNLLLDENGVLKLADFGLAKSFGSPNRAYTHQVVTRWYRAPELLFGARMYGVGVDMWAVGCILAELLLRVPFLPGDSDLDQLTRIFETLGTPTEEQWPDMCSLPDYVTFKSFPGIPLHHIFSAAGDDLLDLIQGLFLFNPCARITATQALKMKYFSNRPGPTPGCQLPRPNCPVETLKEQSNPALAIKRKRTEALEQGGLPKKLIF

For `CCn1cnc2c(Nc3cccc(Cl)c3)nc(N[C@@H]3CCCC[C@@H]3N)nc21` [CGP74514A], the “Inhibition at 10µM (%)” value (CDK1/Cyclin E1; average) was 78.9%, the IC50 (CDK1/Cyclin E1; average (± SEM where n=3)) was 130 nM and the “Inhibition at 10µM (%)” value (CDK1/Cyclin E1; experiment 1) was 77.7%. The IC50 (CDK1/Cyclin E1; experiment 1) was 100 nM, the “Inhibition at 10µM (%)” value (CDK1/Cyclin E1; experiment 2) was 80.1% and the IC50 (CDK1/Cyclin E1; experiment 2) was 163 nM. For the same compound, the “Inhibition at 10µM (%)” value (CDK18/Cyclin Y; average) was 86.9%, the “Inhibition at 10µM (%)” value (CDK18/Cyclin Y; experiment 1) was 81.1% and the “Inhibition at 10µM (%)” value (CDK18/Cyclin Y; experiment 2) was 92.6%. The “Inhibition at 10µM (%)” value (CDK11B/Cyclin L2; average) was 21.5%, the “Inhibition at 10µM (%)” value (CDK11B/Cyclin L2; experiment 1) was 20.4% and the “Inhibition at 10µM (%)” value (CDK11B/Cyclin L2; experiment 2) was 22.7%. The “Inhibition at 10µM (%)” value (CDK7; average) was 93.3%, the IC50 (CDK7; average (± SEM where n=3)) was 95 nM and the “Inhibition at 10µM (%)” value (CDK7; experiment 1) was 96.5%. For the same compound, the IC50 (CDK7; experiment 1) was 100 nM, the “Inhibition at 10µM (%)” value (CDK7; experiment 2) was 90.2% and the IC50 (CDK7; experiment 2) was 90 nM. For the same compound, the “Inhibition at 10µM (%)” value (CDK10/Cyclin L2; average) was 40.2%, the “Inhibition at 10µM (%)” value (CDK10/Cyclin L2; experiment 1) was 37.4% and the “Inhibition at 10µM (%)” value (CDK10/Cyclin L2; experiment 2) was 42.9%. For the same compound, the “Inhibition at 10µM (%)” value (CDK6/Cyclin D1; average) was 58.7%, the “Inhibition at 10µM (%)” value (CDK6/Cyclin D1; experiment 1) was 51.0% and the “Inhibition at 10µM (%)” value (CDK6/Cyclin D1; experiment 2) was 66.5%. The “Inhibition at 10µM (%)” value (CDK15/Cyclin Y; average) was 85.2%, the “Inhibition at 10µM (%)” value (CDK15/Cyclin Y; experiment 1) was 84.1% and the “Inhibition at 10µM (%)” value (CDK15/Cyclin Y; experiment 2) was 86.4%. The “Inhibition at 10µM (%)” value (CDK9/Cyclin K; average) was 71.1%, the “Inhibition at 10µM (%)” value (CDK9/Cyclin K; experiment 1) was 68.0% and the “Inhibition at 10µM (%)” value (CDK9/Cyclin K; experiment 2) was 74.2%. For the same compound, the “Inhibition at 10µM (%)” value (CDK2/Cyclin E1; average) was 94.2%, the IC50 (CDK2/Cyclin E1; average (± SEM where n=3)) was 62 nM and the “Inhibition at 10µM (%)” value (CDK2/Cyclin E1; experiment 1) was 93.3%. For the same compound, the IC50 (CDK2/Cyclin E1; experiment 1) was 63 nM, the “Inhibition at 10µM (%)” value (CDK2/Cyclin E1; experiment 2) was 95.2% and the IC50 (CDK2/Cyclin E1; experiment 2) was 60 nM. The “Inhibition at 10µM (%)” value (CDK14/Cyclin Y; average) was 63.7%, the “Inhibition at 10µM (%)” value (CDK14/Cyclin Y; experiment 1) was 59.7% and the “Inhibition at 10µM (%)” value (CDK14/Cyclin Y; experiment 2) was 67.6%. The “Inhibition at 10µM (%)” value (CDK16/Cyclin Y; experiment 1) was 76.4%, the “Inhibition at 10µM (%)” value (CDK16/Cyclin Y; experiment 2) was 76.7% and the “Inhibition at 10µM (%)” value (CDK5/CDK5R1; average) was 93.3%. For the same compound, the IC50 (CDK5/CDK5R1; average (± SEM where n=3)) was 100 nM, the “Inhibition at 10µM (%)” value (CDK5/CDK5R1; experiment 1) was 90.4% and the IC50 (CDK5/CDK5R1; experiment 1) was 74 nM. For the same compound, the “Inhibition at 10µM (%)” value (CDK5/CDK5R1; experiment 2) was 96.2%, the IC50 (CDK5/CDK5R1; experiment 2) was 130 nM and the “Inhibition at 10µM (%)” value (CDK17/Cyclin Y; average) was 80.2%. The “Inhibition at 10µM (%)” value (CDK17/Cyclin Y; experiment 1) was 79.4%, the “Inhibition at 10µM (%)” value (CDK17/Cyclin Y; experiment 2) was 81.0% and the “Inhibition at 10µM (%)” value (CDK19/Cyclin C; average) was 9.3%. For the same compound, the “Inhibition at 10µM (%)” value (CDK19/Cyclin C; experiment 1) was 26.1%, the “Inhibition at 10µM (%)” value (CDK19/Cyclin C; experiment 2) was -7.5% and the “Inhibition at 10µM (%)” value (CDK13/Cyclin K; average) was 35.2%. The “Inhibition at 10µM (%)” value (CDK13/Cyclin K; experiment 1) was 36.4%, the “Inhibition at 10µM (%)” value (CDK13/Cyclin K; experiment 2) was 33.9% and the “Inhibition at 10µM (%)” value (CDK3/Cyclin E1; average) was 92.7%. The IC50 (CDK3/Cyclin E1; average (± SEM where n=3)) was 75 nM, the “Inhibition at 10µM (%)” value (CDK3/Cyclin E1; experiment 1) was 92.6% and the IC50 (CDK3/Cyclin E1; experiment 1) was 39 nM. For the same compound, the “Inhibition at 10µM (%)” value (CDK3/Cyclin E1; experiment 2) was 92.8%, the IC50 (CDK3/Cyclin E1; experiment 2) was 110 nM and the “Inhibition at 10µM (%)” value (CDK20/Cyclin H; experiment 1) was 40.4%. For the same compound, the “Inhibition at 10µM (%)” value (CDK20/Cyclin H; experiment 2) was 47.3%, the “Inhibition at 10µM (%)” value (CDK12/Cyclin K; average) was 36.8% and the “Inhibition at 10µM (%)” value (CDK12/Cyclin K; experiment 1) was 42.2%. For the same compound, the “Inhibition at 10µM (%)” value (CDK12/Cyclin K; experiment 2) was 31.4%, the “Inhibition at 10µM (%)” value (CDK4/Cyclin D1; average) was 72.2% and the “Inhibition at 10µM (%)” value (CDK4/Cyclin D1; experiment 1) was 63.2%. The “Inhibition at 10µM (%)” value (CDK4/Cyclin D1; experiment 2) was 81.2%, the “Inhibition at 10µM (%)” value (CDK8/Cyclin C; average) was 3.2% and the IC50 (CDK8/Cyclin C; average (± SEM where n=3)) was 260 nM. For the same compound, the “Inhibition at 10µM (%)” value (CDK8/Cyclin C; experiment 1) was 5.8%, the IC50 (CDK8/Cyclin C; experiment 1) was 290 nM and the “Inhibition at 10µM (%)” value (CDK8/Cyclin C; experiment 2) was 0.659%. It also gave an IC50 (CDK8/Cyclin C; experiment 2) of 230 nM.

From paper PMC7265341, “Quantifying CDK inhibitor selectivity in live cells” (Nature Communications, 2020)
